Results: patent EP1073452B1, “USE OF […] TREATING CYTOKINE MEDIATED HEPATIC INJURY” (University of Kentucky Research Foundation, priority 1998, dated 2003)

Tested on: Male BALB/c HSD mice
Assay: Survival of mice rendered hepatotoxic by LPS/GAL treatment (model for septic shock / hepatic failure)
Type: in vivo
Experimental: Hepatic failure was induced in mice by intraperitoneal injections of a mixture of lipopolysaccharide (LPS) (100 µg/kg) and D-galactosamine (GAL) (700 mg/kg) to form LPS/GAL. LPS is a bacterial endotoxin that is a major stimulus for production of many cytokines, particularly tumor necrosis factor (TNF), thought to be involved in liver injury. GAL is an amino sugar that sensitizes hepatocytes by depleting the base uridine and thus preventing hepatic transcription, and sensitizes animals to normally innocuous amounts of endotoxin or TNF. The LPS/GAL treatment induces fulminate hepatic and multiorgan failure, and serves as a model for septic shock. The major effects of LPS/GAL are elicited by the inflammatory cytokine TNF-α. Hepatocytes sensitized to TNF-α then undergo apoptosis or programmed cell death in response to inflammatory processes.
Mice were treated with deltorphin and were subsequently rendered hepatotoxic by LPS/GAL treatment. An emulsion of deltorphin I SEQ ID NO:1 (Tyr-D-Ala-Phe-Asp-Val-Val-Gly-NH2) was prepared at a concentration of 80 µg/200 µl in sterile phosphate buffered saline (PBS). An emulsion of DADLE (Tyr-D-Ala-Gly-Phe-D-Leu-enkephalin) was also prepared at a concentration of 80 µg/200 µl in sterile PBS. Male BALB/c HSD mice were treated by intraperitoneal injections according to the following protocol. Control mice (n = 7) received only LPS/GAL (280 µl) at 6.5 h. Deltorphin I SEQ ID NO:1 treated mice (n = 15) received injections of 4 mg/kg deltorphin I SEQ ID NO:1 at 0 h, 2 h, 4 h, 6 h and 7.5 h and received an LPS/GAL injection at 6.5 h. DADLE treated mice (n = 15) received 4 mg/kg DADLE at 0 h, 2 h, 4 h, 6 h and 7.5 h and received an LPS/GAL injection at 6.5 h.
Both control and treated mice were monitored at 15 h, 20 h, 40 h and 65 h after the last injection. TABLE

[1] = n = 15, 4 mg/kg intraperitoneal at 0 h, 2 h, 4 h, 6 h and 7.5 h, LPS/GAL at 6.5 h, 15 h after the last injection
[2] = n = 15, 4 mg/kg intraperitoneal at 0 h, 2 h, 4 h, 6 h and 7.5 h, LPS/GAL at 6.5 h, 20 h after the last injection
[3] = n = 15, 4 mg/kg intraperitoneal at 0 h, 2 h, 4 h, 6 h and 7.5 h, LPS/GAL at 6.5 h, 40 h after the last injection
[4] = n = 15, 4 mg/kg intraperitoneal at 0 h, 2 h, 4 h, 6 h and 7.5 h, LPS/GAL at 6.5 h, 65 h after the last injection

Tyr-D-Ala-Gly-Phe-D-Leu-enkephalin [DADLE]
20%: SURVIVAL 15 Hours (percent) [1] | SURVIVAL 20 Hours (percent) [2] | SURVIVAL 40 Hours (percent) [3] | SURVIVAL 65 Hours (percent) [4]
not as striking: survival time (mice made septic by LPS/GAL treatment, compared to mice receiving LPS/GAL only)
3: SURVIVAL 15 Hours (number of mice) [1] | SURVIVAL 20 Hours (number of mice) [2] | SURVIVAL 40 Hours (number of mice) [3] | SURVIVAL 65 Hours (number of mice) [4]
